Experimental data from patent US6294568A, “5-arylpyrrole derivatives” (priority 1997, dated 2001).

Target: T1, Human COX-2 (Homo sapiens, UniProt P35354)
T1 construct: endogenous in cells; host or cells: heparinised whole blood of a healthy human donor pretreated with aspirin, stimulated with LPS (own knowledge: COX-2 is induced in monocytes)
T1 sequence (P35354 18-604): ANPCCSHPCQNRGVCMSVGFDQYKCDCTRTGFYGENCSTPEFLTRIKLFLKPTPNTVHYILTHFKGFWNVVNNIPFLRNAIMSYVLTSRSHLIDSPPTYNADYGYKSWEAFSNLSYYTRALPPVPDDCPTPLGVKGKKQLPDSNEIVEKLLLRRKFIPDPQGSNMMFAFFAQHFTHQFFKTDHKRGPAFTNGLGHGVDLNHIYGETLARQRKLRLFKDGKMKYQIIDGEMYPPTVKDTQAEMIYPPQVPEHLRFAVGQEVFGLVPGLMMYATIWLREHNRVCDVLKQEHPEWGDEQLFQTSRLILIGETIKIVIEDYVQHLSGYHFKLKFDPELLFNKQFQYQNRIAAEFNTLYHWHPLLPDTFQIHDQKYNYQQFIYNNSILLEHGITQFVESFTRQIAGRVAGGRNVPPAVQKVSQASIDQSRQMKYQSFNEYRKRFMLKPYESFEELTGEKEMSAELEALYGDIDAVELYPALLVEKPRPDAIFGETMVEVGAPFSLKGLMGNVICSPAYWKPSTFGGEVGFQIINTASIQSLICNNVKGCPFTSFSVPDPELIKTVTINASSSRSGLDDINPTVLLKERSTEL
Assay: Human COX-2 Inhibitory Activity Test (LPS-induced PGE2 in blood)
Type: cell-based
Method: COX-1 and COX-2 activities were measured according to the method of Patrignani et al. (J. Pharm. Exp. Ther. Vol. 271, 1705 (1994)).
(2) COX-2 activity was measured in the following procedure. To blood collected from a healthy normal who had taken 330 mg of aspirin 48 hours before the blood collection in order to inhibit the COX-1 activity, 10 unit/ml of sodium heparin was added, and then pipetted into glass test tubes by 1 ml. 10 μg/ml of Lipopolysaccharide (LPS) was added thereto and the plasma obtained by the specified operation was stored at -40° C. until the measurement for the amount of prostaglandin E2 (PGE2). Test samples containing the test samples were treated in the same manner of operation as described above.
(4) The measurement for the PGE2 content was conducted in the following procedure. In a part of 96 well plate coated with goat anti-mouse antibody, 2 wells were alloted respectively to a blank well, Non-specific Binding (NSB) well, Maximum Binding (B0) well, standard wells at seven concentrations of PGE2 (1000 pg/ml) in doubling dilution ranging from 1000-15.6 pg/ml. The rest of the wells were used for the sample measurement. EIA buffer was added to the NSB wells (100 μl) and to the B0 wells (50 μl), respectively. 50 μl of each of the standard dilution was added in an order from thinner to thicker concentrations. Each of the samples was added to the rest of the wells in an amount of 50 μl. Then, 50 μl of PGE2 tracer was added to each of the wells except for blank wells. Further, 50 μl PGE2 monoclonal antibody was added to each of the wells except for the NSB wells and blank wells, then the well plate was covered with a plastic film and the reaction continued at room temperature for 18 hours. When the reaction was terminated, the wells were washed 5 times with a wash buffer. 200 μl of Elman's reagent was added to each of the wells, and then the well plate was covered with a plastic film and developed for 60 minutes in a dark place. The absorbance at 405 nm was measured by an Immuno Reader (NJ-2000, manufactured by Nippon Intermed Co., Ltd.). From the measurement result, %B/B0 was calculated and, applying it to the approximation formula of Hill Plot, the concentration of the samples was determined to be 40 times concentration. The dilution was conducted with an EIA buffer throughout the Test Example 3.

SMILES: Cc1cc(-c2ccc(F)cc2)c(-c2ccc(S(C)(=O)=O)cc2)[nH]1 [Preparation Example 1, 4-(4-fluorophenyl)-2-methyl-5-(4-methylsulfonylphenyl)-1H-pyrrole]
- IC50 (human blood, LPS, PGE2, IC50 from Hill Plot): 950 nM
- COX-1/COX-2 (ratio of IC50 COX-1 to COX-2): 683
